Reference: paper PMC9505734, “Design, Synthesis, and Evaluation of a Set of Carboxylic Acid and Phosphate Prodrugs Derived from HBV Capsid Protein Allosteric Modulator NVR 3-778” (Molecules, 2022)
Values after ≈ are worked out from the molar mass of the structure shown. Counter-ions that a name gives are not always drawn. Like-named read-outs stand apart in the source and are kept apart here.

Legend:
[1] = test system: HBV replication in Hep38.7-Tet cells; assay: In vitro anti-HBV assay: inhibition of HBV replication (HBV DNA in culture supernatant, real-time PCR); type: cell-based, Hepatitis B virus; settings: for EC50: Hepatitis B virus, 144 h, 6 days treatment, read-out: EC50: the concentration of 50% inhibition for HBV DNA in Hep38.7-Tet cells supernatant
Procedure: (§1) The target compounds N5-N8 were evaluated for their antiviral potency against HBV replication, as well as cytotoxicity in Hep38.7-Tet cells, which reproduces HBV replication from a chromosome-integrated HBV transgene under depletion of tetracycline from the medium. The 50% effective concentration (EC50) for anti-HBV activity, 50% cytotoxic concentration (CC50), and selectivity index (SI) calculated by CC50/EC50 ratio are shown in Table 1.
Hep38.7-Tet cells were cultured with DMEM/F-12/GlutaMAX supplemented with 10% fetal bovine serum, and 10 mM HEPES, 200 unit/mL penicillin, 200 µg/mL streptomycin, 5 µg/mL insulin, and 400 ng/mL tetracycline were added at 37 °C in 5% CO2. Tetracycline was removed when inducing HBV replication. Three days after seeding the cells, the cells were treated with or without compounds for 6 days and the culture supernatants were recovered to quantify HBV DNA using the primers 5′-[…]-3′, 5′-[…]-3′, and a probe 5′-FAM-[…]-TAMRA-3′ by real-time fluorescence quantitative PCR, as described.

[2] = Cytotoxicity assay (WST, Cell Counting Kit-8); type: cell-based; settings: human, Hep38.7-Tet cells, WST method (CCK-8); read-out: CC50: the concentration that kills 50% of Hep38.7-Tet cells
Procedure: as §1
(§2) The WST assays were performed by using Cell Counting Kit-8 (CCK-8) (DOJINDO) according to the manufacturer’s protocol. CCK-8 solution was added to the cells, which were incubated at 37 °C for 15 min and the absorbance at 450 nm was measured.

[3] = Plasma stability at 4 °C; type: in vitro ADME; settings: rat plasma, 2 µM; for Plasma (4 °C) Residual: after 2 h
Procedure: (§3) In order to verify the stability of prodrug in vitro, the stability of NVR 3-778 and prodrug N6 in plasma at 4 °C and whole blood at 37 °C was tested by the LC-MS/MS and characterization of their stability by peak area. […] A total of 1 mL of rat plasma was placed in ice water at 4 °C and 1 mL of rat whole blood was placed in a water bath at 37 °C for use, respectively. DMSO solution with compound concentration of 1 mM was prepared, and then 10 µL compound solution was added to 90 μL 45% methanol aqueous solution to obtain a quantitative solution with a concentration of 100 µM. A 2 µL compound solution was added to 98 µL 4 °C plasma and 37 °C whole blood, and three portions were prepared to reach the final concentration of 2 µM, respectively. After incubation for two hours, 400 µL termination solution was added. The samples were centrifuged at 4000 rpm for 10 min, and the supernatant was extracted. A total of 100 µL supernatant was mixed with 200 µL ultrapure water and fully shaken for 10 min. The absorption peak area (A) of the sample to be tested was determined by HPLC.

[4] = Pharmacokinetic experiment after oral administration in rats; type: in vivo, SD rats; settings: for MRT last: read-out: MRT0-last
Procedure: In order to explore the metabolism and bioavailability of prodrug in vivo after oral administration, the main pharmacokinetic parameters were tested. After oral administration of N6 and NVR 3-778 to the two groups of rats, we detected their plasma concentration, respectively. […] The experimental results confirmed that N6 had longer half-life and lower maximum concentration in vivo than NVR 3-778. In addition, N6 was completely transformed into NVR 3-778 in vivo, and both had favorable bioavailability. Compared with NVR3-778, N6 can release drugs more slowly, which can improve the narrow therapeutic window of NVR3-778 to some extent.
Six male SD rats were randomly divided into two groups (administered with N6 and NVR 3-778, respectively). The rats were fasted for 12 h before administration and had free access to water. Animal feed was given 4 h after administration. Compounds N6 and NVR 3-778 were both administered orally at a dose of 10 mg/kg. The corresponding doses of compounds were dissolved in DMSO/PEG400/water (3%/60%/37%, V/V/V) mixed solution to prepare compound oral solutions, respectively, which were filtered through the […]. After intragastric administration, blood was obtained by jugular vein puncture (blood point: before administration and 0.25 h, 0.5 h, 1 h, 2 h, 4 h, 6 h, 10 h, and 24 h after administration). Then 0.25 mL whole blood was collected from each rat at each time point, adding EDTA-K2 for anticoagulation. After collection, the plasma was centrifuged within 1 h (centrifugal condition: 8000 rpm, 5 min, 8 °C). Plasma samples were stored in a refrigerator before analysis. After the experiment, all rats were executed according to the regulations of the Experimental Animal Ethics Committee.

[5] = Whole blood stability at 37 °C; type: in vitro ADME; settings: rat whole blood, 2 µM; for Whole Blood (37 °C) Residual: after 2 h
Procedure: as §3

[6] = Water solubility test in phosphate buffers (HPLC); type: physicochemical; settings: for solubility at 1 h: aqueous buffer
Procedure: The compound was dissolved in DMSO to prepare the mother liquor with a concentration of 10 mg/mL, and then 10 µL mother liquor was added to 1 mL phosphate buffer with different pH (pH = 2.0, 7.0, and 7.4). The solution was oscillated for 2 h at 3000 rpm of the vortex oscillator, and the precipitation of compounds was observed visually. The standard curve can be established by increasing the concentration of mother liquor until turbidity appears. The peak area (A) of different concentrations (c) was determined by HPLC. The standard curve was established with the concentration and peak area as abscissa and ordinate, respectively, and the standard curve equation A = kc + b was calculated. The standard curve of NVR 3-778 concentration–peak area was established by measuring the peak area at five concentrations of 1000, 200, 40, 8.0, and 1.6 µg/mL. The standard curve equation was A = 35,268c + 80,359 with R^2 = 0.9999. By measuring the peak area at 4000 µg/mL, 1000 µg/mL, 200 µg/mL, 40 µg/mL, and 8.0 µg/mL, the standard curve of N6 concentration–peak area was established: A = 16,303c + 714,762, R^2 = 0.999. Since the solubility of N6 in phosphate buffer solution (pH = 7.0, 7.4) had exceeded the detector range, the saturated solution of N6 was diluted 10 times for testing. On this basis, the saturated solution (pH = 2.0, 7.0, and 7.4) of phosphate buffer at different pH values was prepared and fully oscillated for 1 h before filtration. Finally, the absorption peak area of the sample at different pH phosphate buffer (pH = 2.0, 7.0, and 7.4) was determined (measured twice). According to the standard curve equation, the corresponding concentration was calculated, which was the solubility of the compound.

[7] = test system: Hep38.7-Tet cells; assay: Cytotoxicity assay (WST, Cell Counting Kit-8); type: cell-based
Procedure: as §1, §2

[8] = test system: HepG2.2.15 cell line; settings: read-out: EC50, antiviral activity; cited from earlier work
[9] = set-up: method as in PMID 35268440; settings: pH = 2.0 ref 16; cited from earlier work
[10] = male, SD, analyte N6 in plasma after oral N6, 10 mg/kg (18.8 nmol/kg), rat
[11] = male, SD, plasma, 10 mg/kg, analyte NVR 3-778 after oral NVR 3-778, rat

O=C(Nc1cc(F)c(F)c(F)c1)c1ccc(F)c(S(=O)(=O)N2CCC(OP(=O)(O)O)CC2)c1 (as salt: phosphate) [N5, 1-((2-Fluoro-5-((3,4,5-trifluorophenyl)carbamoyl)phenyl)sulfonyl)piperidin-4-yl Dihydrogen Phosphate]
melting point: 162 to 164 °C

O=C(Nc1cc(F)c(F)c(F)c1)c1ccc(F)c(S(=O)(=O)N2CCC(OP(=O)(O)O)CC2)c1 [N5, 1-((2-Fluoro-5-((3,4,5-trifluorophenyl)carbamoyl)phenyl)sulfonyl)piperidin-4-yl Dihydrogen Phosphate]
SI: selectivity index, the ratio of CC50/EC50 [1]: 33
EC50 [1]: 420 ± 69 nM
CC50 [2]: 13700 ± 1450 nM

O=C(O)CCC(=O)OC1CCN(S(=O)(=O)c2cc(C(=O)Nc3cc(F)c(F)c(F)c3)ccc2F)CC1 [N6, 4-((1-((2-fluoro-5-((3,4,5-trifluorophenyl)carbamoyl)phenyl)sulfonyl)piperidin-4-yl)oxy)-4-oxobutanoic acid]
SI: selectivity index, the ratio of CC50/EC50 [1]: 36
EC50 [1]: 350 ± 48 nM
Plasma (4 °C) 0 h (peak area) [3]: 0.88 ± 0.052
Plasma (4 °C) 2 h (peak area) [3]: 0.89 ± 0.016
Plasma (4 °C) Residual [3]: 101%
melting point: 138 to 140 °C
Tlast ([4]; analyte N6 in plasma after oral N6, 10 mg/kg (18.8 nmol/kg), rat): 1.00 h
AUC(0-t) [4, 10]: 8.13 ± 1.5 ng·h/mL
Cmax [4, 10]: 14.7 ± 1.31 ng/mL
Tmax [4, 10]: 0.25 h
MRT last [4, 10]: 0.487 h
time for complete conversion of N6 into NVR 3-778 ([4]; rats, oral N6 10 mg/kg): ≤ 2 h
Whole Blood (37 °C) 0 h (peak area) [5]: 0.65 ± 0.048
Whole Blood (37 °C) 2 h (peak area) [5]: 0.70 ± 0.026
Whole Blood (37 °C) Residual [5]: 108%
CC50 [2]: 12600 ± 1050 nM
solubility at 1 h ([6]; phosphate buffer pH = 2.0): 695 µg/mL (≈ 1310 µM)
solubility at 1 h ([6]; phosphate buffer pH = 7.0): 7500 µg/mL (≈ 14100 µM)
solubility at 1 h ([6]; phosphate buffer pH = 7.4): 4420 µg/mL (≈ 8290 µM)
water solubility compared with NVR 3-778 ([6]; pH = 2): more than 180 times
water solubility compared with NVR 3-778 ([6]; pH = 7): > 310 times
water solubility compared with NVR 3-778 ([6]; pH = 7.4): > 900 times

O=C(O)CCCC(=O)OC1CCN(S(=O)(=O)c2cc(C(=O)Nc3cc(F)c(F)c(F)c3)ccc2F)CC1 [N7, 5-((1-((2-fluoro-5-((3,4,5-trifluorophenyl)carbamoyl)phenyl)sulfonyl)piperidin-4-yl)oxy)-5-oxopentanoic acid]
SI: selectivity index, the ratio of CC50/EC50 [1]: 46
EC50 [1]: 280 ± 24 nM
melting point: 135 to 137 °C
CC50 [2]: 13000 ± 1740 nM

O=C(O)CCCCC(=O)OC1CCN(S(=O)(=O)c2cc(C(=O)Nc3cc(F)c(F)c(F)c3)ccc2F)CC1 [N8, 6-((1-((2-fluoro-5-((3,4,5-trifluorophenyl)carbamoyl)phenyl)sulfonyl)piperidin-4-yl)oxy)-6-oxohexanoic acid]
SI: selectivity index, the ratio of CC50/EC50 [1]: >731
EC50 [1]: 350 ± 32 nM
melting point: 132 to 134 °C
CC50 [2]: > 256000 nM
reduction of toxicity compared with NVR 3-778 ([7]; CC50 in Hep38.7-Tet cells): at least 18 fold

O=C(Nc1cc(F)c(F)c(F)c1)c1ccc(F)c(S(=O)(=O)N2CCC(O)CC2)c1 [NVR 3-778, 4-Fluoro-3-((4-hydroxypiperidin-1-yl)sulfonyl)-N-(3,4,5-trifluorophenyl)benzamide]
EC50 [8]: 400 nM
SI: selectivity index, the ratio of CC50/EC50 [1]: 36
EC50 [1]: 380 ± 47 nM
Plasma (4 °C) 0 h (peak area) [3]: 0.12 ± 0.0078
Plasma (4 °C) 2 h (peak area) [3]: 0.10 ± 0.0066
Plasma (4 °C) Residual [3]: 85%
Tlast ([4]; analyte NVR 3-778 after oral NVR 3-778, 10 mg/kg (23.1 nmol/kg), rat): 10.0 h
AUC(0-inf) [4, 11]: 3940 ± 948 ng·h/mL
AUC(0-t) [4, 11]: 3890 ± 948 ng·h/mL
Cmax [4, 11]: 1160 ± 261 ng/mL
Tmax [4, 11]: 0.833 ± 0.289 h
MRT inf ([4]; male, SD, plasma, 10 mg/kg, analyte NVR 3-778 after oral NVR 3-778, rat, read-out: MRT0-inf): 2.78 ± 0.144 h
MRT last [4, 11]: 2.67 ± 0.106 h
half-life ([4]; male, SD, plasma, analyte NVR 3-778 after oral NVR 3-778, 10 mg/kg (23.1 nmol/kg), rat): 1.4 ± 0.25 h
water solubility [9]: 3 µg/mL (≈ 6.94 µM)
Whole Blood (37 °C) 0 h (peak area) [5]: 0.18 ± 0.016
Whole Blood (37 °C) 2 h (peak area) [5]: 0.16 ± 0.0026
Whole Blood (37 °C) Residual [5]: 91%
CC50 [2]: 12600 ± 210 nM
CC50 ([7]; WST method (CCK-8), read-out: CC50: the concentration that kills 50% of Hep38.7-Tet cells): 13600 ± 210 nM
solubility at 1 h ([6]; phosphate buffer pH = 2.0): 3.82 µg/mL (≈ 8.83 µM)
solubility at 1 h ([6]; phosphate buffer pH = 7.0): 24 µg/mL (≈ 55.6 µM)
solubility at 1 h ([6]; phosphate buffer pH = 7.4): 4.84 µg/mL (≈ 11.2 µM)
